Data from EP2951180B1, “2,6,7,8 SUBSTITUTED PURINES AS HDM2 INHIBITORS” (Merck Sharp & Dohme Corp., priority 2013, dated 2014).

Molecular target: T1, HDM2 (Homo sapiens, UniProt Q00987)
T1 construct: Thioredoxin (N); made in house; host or cells: E. coli strain BL21(DE3)Rosetta
Assay: FRET assay (HDM2 inhibition; method not described in this part)
Assay type: binding

T1 sequence (Q00987 17-125): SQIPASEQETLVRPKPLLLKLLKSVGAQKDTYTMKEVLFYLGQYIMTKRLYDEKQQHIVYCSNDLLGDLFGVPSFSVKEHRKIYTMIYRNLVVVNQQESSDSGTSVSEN

| SMILES | IC50 (Table 1) | IC50 (Table 2) |
| --- | --- | --- |
| Cc1cccc(-c2nc3nc(C(=O)O)nc(N[C@H](C)C4CCC4)c3n2Cc2ccc(C(F)(F)F)cc2)c1C [Example 1.126, 6-{[(1R)-1-cyclobutylethyl]amino}-8-(2,3-dimethylphenyl)-7-[4-(trifluoromethyl)benzyl]-7H-purine-2-carboxylic acid] | 18 nM | – |
| CC(C)Oc1cccc(-c2nc3nc(C(=O)O)nc(N[C@H](C)C4CCC4)c3n2Cc2ccc(C(F)(F)F)cc2)c1 [Example 1.127, 6-{[(1R)-1-cyclobutylethyl]amino}-8-[3-(1-methylethoxy)phenyl]-7-[4-(trifluoromethyl)benzyl]-7H-purine-2-carboxylic acid] | 38.7 nM | – |
| C[C@@H](Nc1nc(C(=O)O)nc2nc(-c3cc(C(C)(C)C)cc(C(C)(C)C)c3)n(Cc3ccc(C(F)(F)F)cc3)c12)C1CCC1 [Example 1.128, 6-{[(1R)-1-cyclobutylethyl]amino}-8-(3,5-di-tert-butylphenyl)-7-[4-(trifluoromethyl)benzyl]-7H-purine-2-carboxylic acid] | 224 nM | – |
| Cc1cc(OC(F)(F)F)ccc1-c1nc2nc(C(=O)O)nc(N[C@H](C)C3CCC3)c2n1Cc1ccc(C(F)(F)F)cc1 [Example 1.129, 6-{[(1R)-1-cyclobutylethyl]amino}-8-[2-methyl-4-(trifluoromethoxy)phenyl]-7-[4-(trifluoromethyl)benzyl]-7H-purine-2-carboxylic acid] | 46 nM | – |
| C[C@@H](Nc1nc(C(=O)O)nc2nc(-c3cccc(Nc4ccccc4)c3)n(Cc3ccc(C(F)(F)F)cc3)c12)C1CCC1 [Example 1.130, 6-{[(1R)-1-cyclobutylethyl]amino}-8-[3-(phenylamino)phenyl]-7-[4-(trifluoromethyl)benzyl]-7H-purine-2-carboxylic acid] | 76.3 nM | – |
| Cc1cc(C)cc(-c2nc3nc(C(=O)O)nc(N[C@H](C)C4CCC4)c3n2Cc2ccc(C(F)(F)F)cc2)c1 [Example 1.131, 6-{[(1R)-1-cyclobutylethyl]amino}-8-(3,5-dimethylphenyl)-7-[4-(trifluoromethyl)benzyl]-7H-purine-2-carboxylic acid] | 369 nM | – |
| Cc1ccc(Cl)cc1-c1nc2nc(C(=O)O)nc(N[C@H](C)C3CCC3)c2n1Cc1ccc(C(F)(F)F)cc1 [Example 1.132, 8-(5-chloro-2-methylphenyl)-6-{[(1R)-1-cyclobutylethyl]amino}-7-[4-(trifluoromethyl)benzyl]-7H-purine-2-carboxylic acid] | 524 nM | – |
| COc1ccc2cc(-c3nc4nc(C(=O)O)nc(N[C@H](C)C5CCC5)c4n3Cc3ccc(C(F)(F)F)cc3)ccc2c1 [Example 1.133, 6-{[(1R)-1-cyclobutylethyl]amino}-8-(6-methoxynaphthalen-2-yl)-7-[4-(trifluoromethyl)benzyl]-7H-purine-2-carboxylic acid] | 73.3 nM | – |
| COc1c(C)cc(-c2nc3nc(C(=O)O)nc(N[C@H](C)C4CCC4)c3n2Cc2ccc(C(F)(F)F)cc2)cc1C [Example 1.134, 6-{[(1R)-1-cyclobutylethyl]amino}-8-(4-methoxy-3,5-dimethylphenyl)-7-[4-(trifluoromethyl)benzyl]-7H-purine-2-carboxylic acid] | 56.2 nM | – |
| C[C@@H](Nc1nc(C(=O)O)nc2nc(-c3ncccc3C(F)(F)F)n(Cc3ccc(C(F)(F)F)cc3)c12)C1CCC1 [Example 1.135, 6-{[(1R)-1-cyclobutylethyl]amino}-7-[4-(trifluoromethyl)benzyl]-8-[3-(trifluoromethyl)pyridin-2-yl]-7H-purine-2-carboxylic acid] | 47.9 nM | – |
| COc1ccc(-c2nc3nc(C(=O)O)nc(N[C@H](C)C4CCC4)c3n2Cc2ccc(C(F)(F)F)cc2)c(F)c1 [Example 1.136, 6-{[(1R)-1-cyclobutylethyl]amino}-8-(2-fluoro-4-methoxyphenyl)-7-[4-(trifluoromethyl)benzyl]-7H-purine-2-carboxylic acid] | 125 nM | – |
| Cc1cc(-c2nc3nc(C(=O)O)nc(N[C@H](C)C4CCC4)c3n2Cc2ccc(C(F)(F)F)cc2)ccc1F [Example 1.137, 6-{[(1R)-1-cyclobutylethyl]amino}-8-(4-fluoro-3-methylphenyl)-7-[4-(trifluoromethyl)benzyl]-7H-purine-2-carboxylic acid] | 49.7 nM | – |
| CCOc1ccc(C)cc1-c1nc2nc(C(=O)O)nc(N[C@H](C)C3CCC3)c2n1Cc1ccc(C(F)(F)F)cc1 [Example 1.138, 6-{[(1R)-1-cyclobutylethyl]amino}-8-(2-ethoxy-5-methylphenyl)-7-[4-(trifluoromethyl)benzyl]-7H-purine-2-carboxylic acid] | 15.8 nM | – |
| COc1cccc(-c2nc3nc(C(=O)O)nc(N[C@H](C)C4CCC4)c3n2Cc2ccc(C(F)(F)F)cc2)c1 [Example 2.1, (R)-6-((1-cyclobutylethyl)amino)-8-(3-methoxyphenyl)-7-(4-(trifluoromethyl)benzyl)-7H-purine-2-carboxylic acid] | – | 37.5 nM |
| Cc1cc(C2CC2)ccc1-c1nc2nc(C(=O)O)nc(N[C@H](C)C3CCC3)c2n1Cc1ccc(C(F)(F)F)cc1 [Example 2.2, (R)-6-((1-cyclobutylethyl)amino)-8-(4-cyclopropyl-2-methylphenyl)-7-(4-(trifluoromethyl)benzyl)-7H-purine-2-carboxylic acid] | – | 151 nM |
| C[C@@H](Nc1nc(C(=O)O)nc2nc(Cc3ccccc3)n(Cc3ccc(C(F)(F)F)cc3)c12)C1CCC1 [Example 2.3, (R)-8-benzyl-6-((1-cyclobutylethyl)amino)-7-(4-(trifluoromethyl)benzyl)-7H-purine-2-carboxylic acid] | – | 3.66 nM |

| SMILES | IC50 (Table 1) | IC50 (Table 2) |
| --- | --- | --- |
| C[C@@H](Nc1nc(C(=O)O)nc2nc(C3CCCCC3)n(Cc3ccc(C(F)(F)F)cc3)c12)C1CCC1 [Example 2.4, (R)-6-((1-cyclobutylethyl)amino)-8-cyclohexyl-7-(4-(trifluoromethyl)benzyl)-7H-purine-2-carboxylic acid] | – | 11.5 nM |
| C[C@@H](Nc1nc(C(=O)O)nc2nc(-c3cccc(Cl)c3)n(Cc3ccc(Cl)cc3)c12)C1CC1 [Example 2.5, 7-(4-chlorobenzyl)-8-(3-chlorophenyl)-6-{[(1R)-1-cyclopropylethyl]amino}-7H-purine-2-carboxylic acid] | – | 218 nM |
| Cc1cccc(-c2nc3nc(C(=O)O)nc(N[C@H](C)C4CC4)c3n2Cc2ccc(Cl)cc2)c1 [Example 2.6, 7-(4-chlorobenzyl)-6-{[(1R)-1-cyclopropylethyl]amino}-8-(3-methylphenyl)-7H-purine-2-carboxylic acid] | – | 209 nM |
| C[C@@H](Nc1nc(C(=O)O)nc2nc(-c3ccc4sccc4c3)n(Cc3ccc(Cl)cc3)c12)C1CC1 [Example 2.7, 8-(1-benzothiophen-5-yl)-7-(4-chlorobenzyl)-6-{[(1R)-1-cyclopropylethyl]amino}-7H-purine-2-carboxylic acid] | – | 259 nM |
| Cc1cccc(-c2nc3nc(C(=O)O)nc(N[C@H](C)C4CC4)c3n2Cc2ccc(C(F)(F)F)cc2)c1 [Example 2.8, 6-{[(1R)-1-cyclopropylethyl]amino}-8-(3-methylphenyl)-7-[4-(trifluoromethyl)benzyl]-7H-purine-2-carboxylic acid] | – | 28.4 nM |
| C[C@@H](Nc1nc(C(=O)O)nc2nc(-c3ccc(Cl)cc3)n(Cc3ccc(Cl)cc3)c12)C1CC1 [Example 2.9, 7-(4-chlorobenzyl)-8-(4-chlorophenyl)-6-{[(1R)-1-cyclopropylethyl]amino}-7H-purine-2-carboxylic acid] | – | 43.8 nM |
| C[C@@H](Nc1nc(C(=O)O)nc2nc(-c3ccc4sccc4c3)n(Cc3ccc(Cl)cc3)c12)C1CCC1 [Example 2.10, 8-(1-benzothiophen-5-yl)-7-(4-chlorobenzyl)-6-{[(1R)-1-cyclobutylethyl]amino}-7H-purine-2-carboxylic acid] | – | 7.2 nM |
| Cc1cccc(-c2nc3nc(C(=O)O)nc(N[C@H](C)C4CCC4)c3n2Cc2ccc(C(F)(F)F)cc2)c1 [Example 2.11, 6-{[(1R)-1-cyclobutylethyl]amino}-8-(3-methylphenyl)-7-[4-(trifluoromethyl)benzyl]-7H-purine-2-carboxylic acid] | – | 36.6 nM |
| Cc1ccc(C)c(-c2nc3nc(C(=O)O)nc(N[C@H](C)C4CC4)c3n2Cc2ccc(Cl)cc2)c1 [Example 2.12, 7-(4-chlorobenzyl)-6-{[(1R)-1-cyclopropylethyl]amino}-8-(2,5-dimethylphenyl)-7H-purine-2-carboxylic acid] | – | 199 nM |
| Cc1cc(-c2nc3nc(C(=O)O)nc(N[C@H](C)C4CC4)c3n2Cc2ccc(Cl)cc2)ccc1F [Example 2.13, 7-(4-chlorobenzyl)-6-{[(1R)-1-cyclopropylethyl]amino}-8-(4-fluoro-3-methylphenyl)-7H-purine-2-carboxylic acid] | – | 40.4 nM |
| COc1cccc(-c2nc3nc(C(=O)O)nc(N[C@H](C)C4CC4)c3n2Cc2ccc(C(F)(F)F)cc2)c1 [Example 2.14, 6-{[(1R)-1-cyclopropylethyl]amino}-8-(3-methoxyphenyl)-7-[4-(trifluoromethyl)benzyl]-7H-purine-2-carboxylic acid] | – | 339 nM |
| CCOc1cccc(-c2nc3nc(C(=O)O)nc(N[C@H](C)C4CC4)c3n2Cc2ccc(C(F)(F)F)cc2)c1 [Example 2.15, 6-{[(1R)-1-cyclopropylethyl]amino}-8-(3-ethoxyphenyl)-7-[4-(trifluoromethyl)benzyl]-7H-purine-2-carboxylic acid] | – | 304 nM |
| CCc1cccc(-c2nc3nc(C(=O)O)nc(N[C@H](C)C4CC4)c3n2Cc2ccc(C(F)(F)F)cc2)c1 [Example 2.16, 6-{[(1R)-1-cyclopropylethyl]amino}-8-(3-ethylphenyl)-7-[4-(trifluoromethyl)benzyl]-7H-purine-2-carboxylic acid] | – | 180 nM |
| CCOc1cccc(-c2nc3nc(C(=O)O)nc(N[C@H](C)C4CCC4)c3n2Cc2ccc(C(F)(F)F)cc2)c1 [Example 2.17, 6-{[(1R)-1-cyclobutylethyl]amino}-8-(3-ethoxyphenyl)-7-[4-(trifluoromethyl)benzyl] -7H-purine-2-carboxylic acid] | – | 40.2 nM |
| CC(C)c1cccc(-c2nc3nc(C(=O)O)nc(N[C@H](C)C4CC4)c3n2Cc2ccc(C(F)(F)F)cc2)c1 [Example 2.18, 6-{[(1R)-1-cyclopropylethyl]amino}-8-[3-(1-methylethyl)phenyl]-7-[4-(trifluoromethyl)benzyl]-7H-purine-2-carboxylic acid] | – | 123 nM |
